Measured values reported in article PMC7413254 (Nature Communications, 2020).
Like-named read-outs stand apart in the source and are kept apart here.

Legend:
PfCRT^Dd2 [1] = target: T1, PfCRT^Dd2 (Plasmodium falciparum, UniProt Q9N623, A220S/I356T/K76T/M74I/N326S/N75E/Q271E/R371I); experiment: [3H]CQ uptake into Xenopus oocytes, cis-inhibition by unlabelled solute; type: cell-based
Procedure, shortened: (§1)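 Transport runs from the acidic bath into the cytosol, analogous to PfCRT-mediated efflux out of the vacuole. Non-expressing oocytes act as background.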

PfCRT^Ecu1110 [2] = target: T2, PfCRT^Ecu1110 (Plasmodium falciparum, UniProt Q9N623, A220S/I356L/K76T/N326D); experiment: as above; type: cell-based
T2 sequence (Q9N623 whole entry A220S/I356L/K76T/N326D): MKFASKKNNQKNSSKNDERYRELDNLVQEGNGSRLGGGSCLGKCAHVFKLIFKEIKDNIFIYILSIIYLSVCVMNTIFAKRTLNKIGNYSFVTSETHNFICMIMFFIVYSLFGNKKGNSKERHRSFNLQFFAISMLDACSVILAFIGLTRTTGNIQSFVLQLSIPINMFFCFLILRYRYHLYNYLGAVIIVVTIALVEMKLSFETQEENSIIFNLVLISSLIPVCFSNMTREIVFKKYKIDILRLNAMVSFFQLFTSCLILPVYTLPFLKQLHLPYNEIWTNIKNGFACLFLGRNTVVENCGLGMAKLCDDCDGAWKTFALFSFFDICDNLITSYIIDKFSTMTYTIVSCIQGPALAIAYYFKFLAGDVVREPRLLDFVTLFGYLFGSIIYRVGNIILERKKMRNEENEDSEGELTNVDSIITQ
Procedure, shortened: as §1

PfCRT^3D7 [3] = target: T3, PfCRT^3D7 (Plasmodium falciparum, UniProt Q8IBZ9); experiment: cell-based; type: cell-based; conditions: total [3H]CQ transport; for inhibition at 500 µM: [test solute] = 0.5 mM; for inhibition at 1000 µM: [test solute] = 1 mM; for inhibition at 2000 µM: [test solute] = 2 mM
T3 sequence (Q8IBZ9 59-398): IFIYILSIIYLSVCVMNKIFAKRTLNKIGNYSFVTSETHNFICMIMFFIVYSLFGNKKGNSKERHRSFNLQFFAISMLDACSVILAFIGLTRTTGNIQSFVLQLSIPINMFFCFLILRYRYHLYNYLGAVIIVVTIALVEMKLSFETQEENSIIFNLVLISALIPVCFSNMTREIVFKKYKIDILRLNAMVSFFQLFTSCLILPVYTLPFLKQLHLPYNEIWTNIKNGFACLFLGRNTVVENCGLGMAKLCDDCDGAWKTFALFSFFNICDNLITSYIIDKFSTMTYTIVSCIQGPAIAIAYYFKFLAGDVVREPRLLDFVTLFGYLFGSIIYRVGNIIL
Procedure, shortened: as §1

PfNT1 = target: T4, PfNT1 (Plasmodium falciparum, UniProt Q8IDM6); experiment: cell-based; type: cell-based; conditions: for activity at 5000 µM: total [3H]CQ transport
T4 construct: expressed in transfected cells; host or cells: Xenopus laevis oocytes (stage V-VI), cRNA-injected
T4 sequence (Q8IDM6 whole entry): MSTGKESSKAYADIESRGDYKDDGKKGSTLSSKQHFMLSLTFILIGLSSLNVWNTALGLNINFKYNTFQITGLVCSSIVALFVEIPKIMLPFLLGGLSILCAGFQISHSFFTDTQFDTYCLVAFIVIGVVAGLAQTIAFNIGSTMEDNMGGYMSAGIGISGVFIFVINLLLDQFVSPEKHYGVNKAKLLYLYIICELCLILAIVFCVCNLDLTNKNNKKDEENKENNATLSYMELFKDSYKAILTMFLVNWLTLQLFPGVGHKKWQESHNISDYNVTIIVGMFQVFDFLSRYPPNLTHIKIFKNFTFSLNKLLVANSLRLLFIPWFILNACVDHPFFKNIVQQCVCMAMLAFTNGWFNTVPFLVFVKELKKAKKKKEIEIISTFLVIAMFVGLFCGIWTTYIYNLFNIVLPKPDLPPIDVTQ
Procedure, shortened: (§2)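 Oocytes (ten per treatment, ≥4 independent frogs/days) were preloaded by injecting VF-6 in 25 nL ND96 at pH 5.0, 5.5, 6.0 or 7.0, or Na^+-free choline buffer, then uptake run 1.5 h, 27.5 °C, ND96 pH 5.5 by default. Internal concentrations assumed ~400 nL oocyte volume.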

PfCRT^3D7 [4] = target: T3, PfCRT^3D7; experiment: cell-based; type: cell-based
Procedure, shortened: as §2

PfCRT^Dd2 [5] = target: T1, PfCRT^Dd2; experiment: cell-based; type: cell-based; conditions: […]; for activity at 45000 µM: [test solute]i = 45 mM (30 mM for some solutes due to solubility)
Procedure, shortened: as §2

PfCRT^Ecu1110 [6] = target: T2, PfCRT^Ecu1110; experiment: cell-based; type: cell-based; conditions: […]
Procedure, shortened: as §2

non-expressing oocytes [7] = type: cell-based, Xenopus laevis; conditions: total [3H]CQ transport; for Uptake of [3H]CQ (% non-expressing oocyte control), trans-stimulation: non-expressing oocytes, normalised to the oocyte type control; for Uptake of [3H]CQ (% PfCRTDd2 control), trans-stimulation, non-expressing oocytes: mean ± SEM, SEM
Procedure, shortened: as §2

PfCRT [8] = experiment: Test of solutes as potential co-substrates for influx of VF-6 via PfCRT into the oocyte; type: cell-based, Plasmodium falciparum; parameters: key: X: Compounds that have been tested as potential co-substrates but are not required for influx of VF-6 via PfCRT into the oocyte; conditions: X = tested
non-expressing oocytes [9] = experiment: cells; type: cell-based, Xenopus laevis; conditions: Xenopus laevis, total [3H]CQ transport; for inhibition at 500 µM: [test solute] = 0.5 mM; for inhibition at 1000 µM: [test solute] = 1 mM; for inhibition at 2000 µM: [test solute] = 2 mM
Procedure, shortened: as §1

PfCRT [10] = experiment: Influx of VF-6 via PfCRT into the oocyte, solutes tested as potential co-substrates; type: cell-based, Plasmodium falciparum; parameters: key: X: Compounds that have been tested as potential co-substrates but are not required for influx of VF-6 via PfCRT into the oocyte; conditions: X marks the solute
[11] = read-out: PfCRT-mediated [3H]CQ transport, cis-inhibition (% PfCRTDd2 control)
[12] = read-out: Uptake of [3H]CQ (% PfCRTDd2 control), cis-inhibition, PfCRTDd2, SEM
[13] = read-out: PfCRT-mediated [3H]CQ transport, cis-inhibition (% PfCRTEcu1110 control)
[14] = read-out: Uptake of [3H]CQ (% PfCRTDd2 control), cis-inhibition, PfCRTEcu1110, SEM
[15] = read-out: Uptake of [3H]CQ (% PfCRTEcu1110 control), cis-inhibition
[16] = read-out: [3H]CQ transport (% PfCRTEcu1110 control), cis-inhibition, PfCRTEcu1110, SEM
[17] = PfCRT3D7 oocytes, normalised to the oocyte type control, read-out: Uptake of [3H]CQ (% PfCRT3D7 control), cis-inhibition
[18] = mean ± SEM, SEM, read-out: Uptake of [3H]CQ (% PfCRTDd2 control), cis-inhibition, PfCRT3D7
[19] = Oocyte, mean ± SEM, SEM, read-out: Uptake of [3H]CQ (% PfCRTDd2 control), cis-inhibition, non-expressing oocytes
[20] = non-expressing oocytes, normalised to the oocyte type control, read-out: Uptake of [3H]CQ (% non-expressing oocyte control), cis-inhibition

T1 sequence (Q9N623 whole entry A220S/I356T/K76T/M74I/N326S/N75E/Q271E/R371I): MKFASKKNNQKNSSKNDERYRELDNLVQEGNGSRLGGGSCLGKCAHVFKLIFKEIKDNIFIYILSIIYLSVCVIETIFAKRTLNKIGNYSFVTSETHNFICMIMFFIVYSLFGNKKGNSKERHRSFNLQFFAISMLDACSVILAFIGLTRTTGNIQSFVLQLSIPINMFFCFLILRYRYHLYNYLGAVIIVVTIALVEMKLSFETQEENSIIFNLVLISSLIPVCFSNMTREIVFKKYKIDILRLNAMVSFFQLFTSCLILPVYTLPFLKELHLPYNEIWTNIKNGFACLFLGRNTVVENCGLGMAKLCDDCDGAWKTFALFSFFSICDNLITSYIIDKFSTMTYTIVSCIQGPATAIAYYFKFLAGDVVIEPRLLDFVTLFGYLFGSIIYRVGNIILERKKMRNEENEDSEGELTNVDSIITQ

## N[C@@H](Cc1ccccc1)C(=O)O [L-phenylalanine]
PfCRT^Dd2 [1]; [11]
  inhibition at 500 µM: 94 ± 2.7%
  inhibition at 1000 µM: 95 ± 2.7%
PfCRT^Dd2 [1]; [12]
  inhibition at 500 µM: 96 ± 3.6%
  inhibition at 1000 µM: 97 ± 3.3%
  inhibition at 2000 µM: 98 ± 2.2%
PfCRT^Ecu1110 [2]; [13]
  inhibition at 500 µM: 95 ± 3.6%
  inhibition at 1000 µM: 95 ± 0.3%
PfCRT^Ecu1110 [2]; [14]
  inhibition at 500 µM: 32 ± 2.5%
  inhibition at 1000 µM: 32 ± 1.5%
  inhibition at 2000 µM: 32 ± 1.5%
PfCRT^Ecu1110 [2]; [15]
  inhibition at 500 µM: 97 ± 2.1%
  inhibition at 1000 µM: 96 ± 1.8%
  inhibition at 2000 µM: 98 ± 2.4%
PfCRT^Ecu1110 [2]; [16]
  inhibition at 500 µM: 29 ± 0.7%
  inhibition at 1000 µM: 29 ± 1.7%
  inhibition at 2000 µM: 29 ± 0.5%
PfCRT^3D7 [3]; [17]
  inhibition at 500 µM: 99 ± 4.3%
  inhibition at 1000 µM: 99 ± 5.2%
  inhibition at 2000 µM: 100 ± 3.6%
PfCRT^3D7 [3]; [18]
  inhibition at 500 µM: 3.1 ± 0.06%
  inhibition at 1000 µM: 3.1 ± 0.06%
  inhibition at 2000 µM: 3.1 ± 0.07%
PfNT1; PfNT1 oocytes, [test solute]i = 5 mM, normalised to the oocyte type control, read-out: Uptake of [3H]CQ (% PfNT1 control), trans-stimulation
  activity at 5000 µM: 99 ± 2.2%
PfNT1; SEM, read-out: Uptake of [3H]CQ (% PfCRTDd2 control), trans-stimulation, PfNT1
  activity at 45000 µM: 2.8 ± 0.07%
PfNT1; read-out: Uptake of [3H]CQ (% PfNT1 control), trans-stimulation
  activity at 45000 µM: 100 ± 2.5%
PfNT1; [test solute]i = 5 mM (intracellular), mean ± SEM, SEM, read-out: Uptake of [3H]CQ (% PfCRTDd2 control), trans-stimulation, PfNT1
  activity at 5000 µM: 3 ± 0.01%
PfCRT^3D7 [4]; PfCRT3D7 oocytes, [test solute]i = 5 mM, total [3H]CQ transport, normalised to the oocyte type control, read-out: Uptake of [3H]CQ (% PfCRT3D7 control), trans-stimulation
  activity at 5000 µM: 98 ± 3.3%
PfCRT^3D7 [4]; SEM
  [3H]CQ transport (% PfCRT3D7 control), trans-stimulation, PfCRT3D7: 0.3 ± 0.01 % PfCRT3D7 control
PfCRT^3D7 [4]; [test solute]i = 5 mM (intracellular), PfCRT3D7 oocytes, normalised to oocyte type control, read-out: PfCRT-mediated [3H]CQ transport, trans-stimulation (% PfCRT3D7 control)
  activity at 5000 µM: 96 ± 2.8%
PfCRT^3D7 [4]; SEM, read-out: Uptake of [3H]CQ (% PfCRTDd2 control), trans-stimulation, PfCRT3D7
  activity at 45000 µM: 3.3 ± 0.05%
PfCRT^3D7 [4]; read-out: PfCRT-mediated [3H]CQ transport, trans-stimulation (% PfCRT3D7 control)
  activity at 45000 µM: 96 ± 2.1%
PfCRT^3D7 [4]; read-out: Uptake of [3H]CQ (% PfCRT3D7 control), trans-stimulation
  activity at 45000 µM: 98 ± 3%
PfCRT^3D7 [4]; total [3H]CQ transport, [test solute]i = 5 mM (intracellular), mean ± SEM, SEM, read-out: Uptake of [3H]CQ (% PfCRTDd2 control), trans-stimulation, PfCRT3D7
  activity at 5000 µM: 3.3 ± 0.01%
PfCRT^Dd2 [5]; pH 5.5, read-out: PfCRT-mediated [3H]CQ transport, trans-stimulation (% PfCRTDd2 control), [test solute]i = 5 mM (intracellular), PfCRTDd2 oocytes, normalised to oocyte type control
  activity at 5000 µM: 99 ± 3.9%
PfCRT^Dd2 [5]; pH 5.5, read-out: Uptake of [3H]CQ (% PfCRTDd2 control), trans-stimulation, PfCRTDd2, total [3H]CQ transport, [test solute]i = 5 mM (intracellular), mean ± SEM, SEM
  activity at 5000 µM: 101 ± 2.4%
PfCRT^Dd2 [5]; pH 5.5, read-out: Uptake of [3H]CQ (% PfCRTDd2 control), trans-stimulation, PfCRTDd2 oocytes, [test solute]i = 5 mM, total [3H]CQ transport, normalised to the oocyte type control
  activity at 5000 µM: 101 ± 2.4%
PfCRT^Dd2 [5]; pH 5.5, read-out: Uptake of [3H]CQ (% PfCRTDd2 control), trans-stimulation, PfCRTDd2 oocytes, total [3H]CQ transport, normalised to the oocyte type control
  activity at 45000 µM: 100 ± 2.2%
PfCRT^Dd2 [5]; pH 5.5, read-out: [3H]CQ transport (% PfCRTDd2 control), trans-stimulation, PfCRTDd2, trans-stimulation, [test solute]i = 5 mM (injected), PfCRT-mediated component (background subtracted), mean ± SEM, SEM
  activity at 5000 µM: 99 ± 3.9%
PfCRT^Dd2 [5]; pH 5.5, read-out: [3H]CQ transport (% PfCRTDd2 control), trans-stimulation, PfCRTDd2, trans-stimulation, PfCRT-mediated component (background subtracted), mean ± SEM, SEM
  activity at 45000 µM: 98 ± 3%
PfCRT^Ecu1110 [6]; pH 5.5, read-out: PfCRT-mediated [3H]CQ transport, trans-stimulation (% PfCRTEcu1110 control), [test solute]i = 5 mM (intracellular), PfCRTEcu1110 oocytes, normalised to oocyte type control
  activity at 5000 µM: 96 ± 1.9%
PfCRT^Ecu1110 [6]; pH 5.5, read-out: Uptake of [3H]CQ (% PfCRTEcu1110 control), trans-stimulation, PfCRTEcu1110 oocytes, [test solute]i = 5 mM, total [3H]CQ transport, normalised to the oocyte type control
  activity at 5000 µM: 98 ± 3.4%
PfCRT^Ecu1110 [6]; pH 5.5, read-out: Uptake of [3H]CQ (% PfCRTEcu1110 control), trans-stimulation, PfCRTEcu1110 oocytes, [test solute]i = 45 mM (30 mM for some solutes due to solubility), total [3H]CQ transport, normalised to the oocyte type control
  activity at 45000 µM: 101 ± 3.2%
PfCRT^Ecu1110 [6]; read-out: Uptake of [3H]CQ (% PfCRTDd2 control), trans-stimulation, PfCRTEcu1110, total [3H]CQ transport, [test solute]i = 5 mM (intracellular), mean ± SEM, SEM
  activity at 5000 µM: 35 ± 1.3%
PfCRT^Ecu1110 [6]; read-out: Uptake of [3H]CQ (% PfCRTDd2 control), trans-stimulation, PfCRTEcu1110, total [3H]CQ transport, [test solute]i = 45 mM (intracellular; 30 mM for some solutes due to solubility), mean ± SEM, SEM
  activity at 45000 µM: 36 ± 1.7%
non-expressing oocytes [7]; [test solute]i = 5 mM
  Uptake of [3H]CQ (% non-expressing oocyte control), trans-stimulation: 98 ± 2.6 % non-expressing oocyte control
non-expressing oocytes [7]; [test solute]i = 45 mM (30 mM for some solutes due to solubility)
  Uptake of [3H]CQ (% non-expressing oocyte control), trans-stimulation: 99 ± 2.7 % non-expressing oocyte control
non-expressing oocytes [7]; [test solute]i = 5 mM (intracellular)
  Uptake of [3H]CQ (% PfCRTDd2 control), trans-stimulation, non-expressing oocytes: 2.4 ± 0.03 % PfCRTDd2 control
non-expressing oocytes [7]; [test solute]i = 45 mM (intracellular; 30 mM for some solutes due to solubility)
  Uptake of [3H]CQ (% PfCRTDd2 control), trans-stimulation, non-expressing oocytes: 2.2 ± 0.09 % PfCRTDd2 control
PfCRT [8]
  Tested as potential co-substrate but not required for influx of VF-6 via PfCRT into the oocyte: X
non-expressing oocytes [9]; [19]
  inhibition at 500 µM: 3 ± 0.06%
  inhibition at 1000 µM: 2.7 ± 0.04%
  inhibition at 2000 µM: 2.3 ± 0.1%
non-expressing oocytes [9]; [20]
  inhibition at 500 µM: 98 ± 6.3%
  inhibition at 1000 µM: 100 ± 4.6%
  inhibition at 2000 µM: 99 ± 3.2%
PfCRT [10]
  Compounds that have been tested as potential co-substrates but are not required for influx of VF-6 via PfCRT into the oocyte: X
